According to patent publication US6979686B1, “Substituted pyrazoles as p38 kinase inhibitors” (Pharmacia Corporation, priority 2001, dated 2005):
Like-named read-outs stand apart in the source and are kept apart here.

Assays:
human p38 kinase alpha = biological target: T1, human p38 kinase alpha (Homo sapiens, UniProt Q16539); assay: p38 kinase in vitro assay, phosphorylation of biotinylated PHAS-I with 32P-ATP; assay type: biochemical; details: for IC50: in vitro P38-alpha kinase, read-out: P38 alpha kinase IC50
T1 construct: GST (N, cleaved yes); made in house; host or cells: E. coli DH10B

[1] = system: TNF-α, U937 human histiocytic lymphoma cell line; assay: LPS stimulation of TNF production by U937 cells; assay type: cell-based; details: for inhibition at 1 µM: U-937, @ 1.0 uM; for inhibition at 1 µM / inhibition at 10 µM / U937 Cell % inhib @ conc.: LPS-stimulated U937 cells; for inhibition at 1 µM / inhibition at 10 µM: read-out: U937 Cell % inhib @ conc.; for inhibition at 10 µM: U-937, @ 10.0 uM; for U937 Cell % inhib @ conc. / U937 Cell IC50, uM or % inhib @ conc. (uM): % inhib: @ 10.0 uM
How it was run: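 U937 cells differentiated 24 h with 20 ng/ml PMA, rested 24-48 h, used at 2 million cells/ml. Compounds in 0.1% DMSO final; LPS (E. coli, 100 ng/ml final) stimulation for 4 h at 37° C. Released TNF-α measured by ELISA; IC50 (μM).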

[2] = Homo sapiens, U-937, TNF production, human U937 cells stimulated with LPS, read-out: U937 Cell IC50
[3] = TNF production, human U937 cells stimulated with LPS, read-out: U937 Cell IC50
[4] = TNF production, U937 cells stimulated with LPS, read-out: U937 Cell IC50, uM or % inhib @ conc. (uM): IC50
[5] = TNF production, U937 cells stimulated with LPS

T1 sequence (Q16539 whole entry): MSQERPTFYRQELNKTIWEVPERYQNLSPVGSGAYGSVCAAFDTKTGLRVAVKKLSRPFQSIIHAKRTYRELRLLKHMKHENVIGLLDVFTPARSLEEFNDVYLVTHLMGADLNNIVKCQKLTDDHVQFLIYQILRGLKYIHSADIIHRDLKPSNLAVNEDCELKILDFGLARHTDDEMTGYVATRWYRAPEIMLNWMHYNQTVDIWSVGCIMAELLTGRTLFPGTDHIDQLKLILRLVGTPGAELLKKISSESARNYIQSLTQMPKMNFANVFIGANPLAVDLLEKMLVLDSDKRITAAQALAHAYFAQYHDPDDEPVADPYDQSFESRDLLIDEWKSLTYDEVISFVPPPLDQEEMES

COc1ccc(Br)cc1S(=O)(=O)N1CCC(c2[nH]nc(-c3ccc(F)cc3)c2-c2ccncc2)CC1 [Example B-1446]
IC50 (human p38 kinase alpha): 770 nM | inhibition at 1 µM ([1]; Homo sapiens, TNF production): 36%

O=S(=O)(c1cccc(Cl)c1Cl)N1CCC(c2[nH]nc(-c3ccc(F)cc3)c2-c2ccncc2)CC1 [Example B-1448]
IC50 (human p38 kinase alpha): 1430 nM | inhibition at 1 µM ([1]; Homo sapiens, TNF production): 22%

O=S(=O)(c1c(F)cccc1F)N1CCC(c2[nH]nc(-c3ccc(F)cc3)c2-c2ccncc2)CC1 [Example B-1455]
IC50 (human p38 kinase alpha): 1210 nM | inhibition at 1 µM ([1]; Homo sapiens, TNF production): 8%

O=S(=O)(c1ccc(F)c(F)c1)N1CCC(c2[nH]nc(-c3ccc(F)cc3)c2-c2ccncc2)CC1 [Example B-1456]
IC50 (human p38 kinase alpha): 1290 nM | IC50 [1, 2]: > 1 µM

O=S(=O)(c1ccccc1C(F)(F)F)N1CCC(c2[nH]nc(-c3ccc(F)cc3)c2-c2ccncc2)CC1 [Example B-1460]
IC50 (human p38 kinase alpha): 960 nM | inhibition at 1 µM ([1]; Homo sapiens, TNF production): 29%

O=S(=O)(c1cccc(Cl)c1)N1CCC(c2[nH]nc(-c3ccc(F)cc3)c2-c2ccncc2)CC1 [Example B-1465]
IC50 (human p38 kinase alpha): 3230 nM | inhibition at 1 µM ([1]; Homo sapiens, TNF production): 31%

O=S(=O)(c1cccc(Br)c1)N1CCC(c2[nH]nc(-c3ccc(F)cc3)c2-c2ccncc2)CC1 [Example B-1466]
IC50 (human p38 kinase alpha): 1690 nM | IC50 [1, 2]: > 1 µM

Cc1cccc(S(=O)(=O)N2CCC(c3[nH]nc(-c4ccc(F)cc4)c3-c3ccncc3)CC2)c1 [Example B-1467]
IC50 (human p38 kinase alpha): 1220 nM | inhibition at 1 µM ([1]; Homo sapiens, TNF production): 1%

O=S(=O)(c1cccc(C(F)(F)F)c1)N1CCC(c2[nH]nc(-c3ccc(F)cc3)c2-c2ccncc2)CC1 [Example B-1468]
IC50 (human p38 kinase alpha): 1610 nM | inhibition at 1 µM ([1]; Homo sapiens, TNF production): 10%

N#Cc1cccc(S(=O)(=O)N2CCC(c3[nH]nc(-c4ccc(F)cc4)c3-c3ccncc3)CC2)c1 [Example B-1469]
IC50 (human p38 kinase alpha): 370 nM | inhibition at 1 µM ([1]; Homo sapiens, TNF production): 14%

O=S(=O)(c1ccc(F)cc1)N1CCC(c2[nH]nc(-c3ccc(F)cc3)c2-c2ccncc2)CC1 [Example B-1470]
IC50 (human p38 kinase alpha): 600 nM | inhibition at 1 µM ([1]; Homo sapiens, TNF production): 28%

O=S(=O)(c1ccc(Cl)cc1)N1CCC(c2[nH]nc(-c3ccc(F)cc3)c2-c2ccncc2)CC1 [Example B-1471]
IC50 (human p38 kinase alpha): 850 nM | inhibition at 1 µM ([1]; Homo sapiens, TNF production): 25%

Cc1ccc(S(=O)(=O)N2CCC(c3[nH]nc(-c4ccc(F)cc4)c3-c3ccncc3)CC2)cc1 [Example B-1473]
IC50 (human p38 kinase alpha): 1240 nM | inhibition at 1 µM ([1]; Homo sapiens, TNF production): 14%

O=S(=O)(c1ccc(C(F)(F)F)cc1)N1CCC(c2[nH]nc(-c3ccc(F)cc3)c2-c2ccncc2)CC1 [Example B-1474]
IC50 (human p38 kinase alpha): 1230 nM | inhibition at 1 µM ([1]; Homo sapiens, TNF production): 31%

N#Cc1ccc(S(=O)(=O)N2CCC(c3[nH]nc(-c4ccc(F)cc4)c3-c3ccncc3)CC2)cc1 [Example B-1475]
IC50 (human p38 kinase alpha): 2100 nM | inhibition at 1 µM ([1]; Homo sapiens, TNF production): 24%

CCCNC(=O)Cn1nc(-c2ccc(F)cc2)c(-c2ccncc2)c1C [Example B-2270]
IC50 (human p38 kinase alpha): 720 nM | inhibition at 10 µM ([1]; Homo sapiens, TNF production): 31%

Cc1c(-c2ccncc2)c(-c2ccc(F)cc2)nn1CC(=O)NCCc1cccs1 [Example B-2279]
IC50 (human p38 kinase alpha): 320 nM | U937 Cell % inhib @ conc. ([1]; TNF production): 36.0% @

Cc1c(-c2ccncc2)c(-c2ccc(F)cc2)nn1CC(=O)NCCCN1CCN(C)CC1 [Example B-2289]
IC50 (human p38 kinase alpha): 3000 nM | inhibition at 10 µM ([1]; Homo sapiens, TNF production): 30%

COc1cc(NC(=O)CCNC(=O)Cn2nc(-c3ccc(F)cc3)c(-c3ccncc3)c2C)cc2ccccc12 [Example B-2298]
IC50 (human p38 kinase alpha): 290 nM | IC50 [1, 3]: 4.22 µM

COc1ccccc1CCNC(=O)Cn1nc(-c2ccc(F)cc2)c(-c2ccncc2)c1C [Example B-2315]
IC50 (human p38 kinase alpha): 490 nM | U937 Cell % inhib @ conc. ([1]; TNF production): 36.0% @

Cc1c(-c2ccncc2)c(-c2ccc(F)cc2)nn1CC(=O)NC1CCc2ccccc21 (stereo not shown) [Example B-2318]
P38 alpha kinase % inhib @ conc. (human p38 kinase alpha; @ 10.0 uM): 73.0% @ | U937 Cell % inhib @ conc. ([1]; TNF production): 25.0% @

COC(=O)[C@H](CCSC)NC(=O)Cn1nc(-c2ccc(F)cc2)c(-c2ccncc2)c1C [Example B-2324]
P38 alpha kinase % inhib @ conc. (human p38 kinase alpha; @ 10.0 uM): 58.0% @ | U937 Cell % inhib @ conc. ([1]; TNF production): 36.0% @

Cc1c(-c2ccncc2)c(-c2ccc(F)cc2)nn1CC(=O)NC(C)Cc1c[nH]c2ccccc12 (stereo not shown) [Example B-2328]
P38 alpha kinase % inhib @ conc. (human p38 kinase alpha; @ 10.0 uM): 65.0% @ | U937 Cell % inhib @ conc. ([1]; TNF production): 28.0% @

Cc1c(-c2ccncc2)c(-c2ccc(F)cc2)nn1CC(=O)NC1CCCC1 [Example B-2333]
P38 alpha kinase % inhib @ conc. (human p38 kinase alpha; @ 10.0 uM): 58.0% @ | U937 Cell % inhib @ conc. ([1]; TNF production): 36.0% @

COC(=O)[C@H](CSCc1ccccc1)NC(=O)Cn1nc(-c2ccc(F)cc2)c(-c2ccncc2)c1C [Example B-2339]
P38 alpha kinase % inhib @ conc. (human p38 kinase alpha; @ 10.0 uM): 84.0% @ | IC50 [1, 3]: > 10 µM

CCOC(=O)C(Cc1ccccc1)NC(=O)Cn1nc(-c2ccc(F)cc2)c(-c2ccncc2)c1C (stereo not shown) [Example B-2351]
P38 alpha kinase % inhib @ conc. (human p38 kinase alpha; @ 10.0 uM): 77.0% @ | U937 Cell % inhib @ conc. ([1]; TNF production): 1.0% @

CCCCCc1cccc(C(C)NC(=O)Cn2nc(-c3ccc(F)cc3)c(-c3ccncc3)c2C)c1 (stereo not shown) [Example B-2354]
P38 alpha kinase % inhib @ conc. (human p38 kinase alpha; @ 10.0 uM): 65.0% @ | U937 Cell % inhib @ conc. ([1]; TNF production): 25.0% @

CCOC(=O)CC[C@H](NC(=O)Cn1nc(-c2ccc(F)cc2)c(-c2ccncc2)c1C)C(=O)OCC [Example B-2360]
P38 alpha kinase % inhib @ conc. (human p38 kinase alpha; @ 10.0 uM): 45.0% @ | IC50 [1, 3]: > 10 µM

COC(=O)C(C)NC(=O)Cn1nc(-c2ccc(F)cc2)c(-c2ccncc2)c1C (stereo not shown) [Example B-2363]
P38 alpha kinase % inhib @ conc. (human p38 kinase alpha; @ 10.0 uM): 44.0% @ | U937 Cell % inhib @ conc. ([1]; TNF production): 1.0% @

CCN1CCC(N(CC)C(=O)Cn2nc(-c3ccc(F)cc3)c(-c3ccncc3)c2C)C1 (stereo not shown) [Example B-2369]
P38 alpha kinase % inhib @ conc. (human p38 kinase alpha; @ 10.0 uM): 32.0% @ | IC50 [1, 3]: > 10 µM

CCN(CC)C(=O)Cn1nc(-c2ccc(F)cc2)c(-c2ccncc2)c1C [Example B-2371]
P38 alpha kinase % inhib @ conc. (human p38 kinase alpha; @ 10.0 uM): 54.0% @ | U937 Cell % inhib @ conc. ([1]; TNF production): 36.0% @

Cc1c(-c2ccncc2)c(-c2ccc(F)cc2)nn1CC(=O)N(CC(C)C)CC(C)C [Example B-2372]
P38 alpha kinase % inhib @ conc. (human p38 kinase alpha; @ 100.0 uM): 55.0% @ | IC50 [1, 3]: > 10 µM

C=CCN(C(=O)Cn1nc(-c2ccc(F)cc2)c(-c2ccncc2)c1C)C1CCCCC1 [Example B-2373]
P38 alpha kinase % inhib @ conc. (human p38 kinase alpha; @ 100.0 uM): 50.0% @ | U937 Cell % inhib @ conc. ([1]; TNF production): 6% @

Cc1c(-c2ccncc2)c(-c2ccc(F)cc2)nn1CC(=O)N(C)CCN(C)C [Example B-2375]
P38 alpha kinase % inhib @ conc. (human p38 kinase alpha; @ 100.0 uM): 62.0% @ | IC50 [1, 3]: > 10 µM

CCN(Cc1ccncc1)C(=O)Cn1nc(-c2ccc(F)cc2)c(-c2ccncc2)c1C [Example B-2381]
P38 alpha kinase % inhib @ conc. (human p38 kinase alpha; @ 100.0 uM): 68% @ | U937 Cell % inhib @ conc. ([1]; TNF production): 2.0% @

Cc1c(-c2ccncc2)c(-c2ccc(F)cc2)nn1CC(=O)N1CCCN(C)CC1 [Example B-2382]
P38 alpha kinase % inhib @ conc. (human p38 kinase alpha; @ 10.0 uM): 51.0% @ | U937 Cell % inhib @ conc. ([1]; TNF production): 24.0% @

Cc1c(-c2ccncc2)c(-c2ccc(F)cc2)nn1CC(=O)N1CCC[C@H]1CN1CCCC1 [Example B-2384]
P38 alpha kinase % inhib @ conc. (human p38 kinase alpha; @ 100.0 uM): 49% @ | U937 Cell % inhib @ conc. ([1]; TNF production): 10.0% @

Cc1c(-c2ccncc2)c(-c2ccc(F)cc2)nn1CC(=O)N(C)CCCC1c2ccccc2CCc2ccccc21 [Example B-2387]
P38 alpha kinase IC50, uM or % inhib @ conc. (uM): % inhib (human p38 kinase alpha; @ 100.0 uM): 50.0% @ | IC50 [1, 4]: > 10 µM

Cc1c(-c2ccncc2)c(-c2ccc(F)cc2)nn1CC(=O)N1CCC(N(C)C(=O)OC(C)(C)C)C1 (stereo not shown) [Example B-2389]
P38 alpha kinase IC50, uM or % inhib @ conc. (uM): % inhib (human p38 kinase alpha; @ 10.0 uM): 39.0% @ | U937 Cell IC50, uM or % inhib @ conc. (uM): % inhib [1, 5]: 29.0% @

Cc1c(-c2ccncc2)c(-c2ccc(F)cc2)nn1CC(=O)N(C)CCn1ccnc1 [Example B-2393]
P38 alpha kinase IC50, uM or % inhib @ conc. (uM): % inhib (human p38 kinase alpha; @ 10.0 uM): 43.0% @ | IC50 [1, 4]: > 10 µM

COCCN(Cc1cccc(OC)c1)C(=O)Cn1nc(-c2ccc(F)cc2)c(-c2ccncc2)c1C [Example B-2394]
P38 alpha kinase IC50, uM or % inhib @ conc. (uM): % inhib (human p38 kinase alpha; @ 10.0 uM): 37.0% @ | U937 Cell IC50, uM or % inhib @ conc. (uM): % inhib [1, 5]: 22.0% @

Cc1c(-c2ccncc2)c(-c2ccc(F)cc2)nn1CC(=O)N(C)CCN1CCOCC1 [Example B-2395]
P38 alpha kinase IC50, uM or % inhib @ conc. (uM): % inhib (human p38 kinase alpha; @ 10.0 uM): 32.0% @ | U937 Cell IC50, uM or % inhib @ conc. (uM): % inhib [1, 5]: 28.0% @

COc1ccc(CN(CCc2ccccc2)C(=O)Cn2nc(-c3ccc(F)cc3)c(-c3ccncc3)c2C)cc1 [Example B-2396]
P38 alpha kinase IC50, uM or % inhib @ conc. (uM): % inhib (human p38 kinase alpha; @ 10.0 uM): 75.0% @ | IC50 [1, 4]: > 10 µM

Cc1c(-c2ccncc2)c(-c2ccc(F)cc2)nn1CC(=O)N(CC1CC1)C(C)Cc1ccc(Cl)cc1 (stereo not shown) [Example B-2397]
P38 alpha kinase IC50, uM or % inhib @ conc. (uM): % inhib (human p38 kinase alpha; @ 10.0 uM): 83.0% @ | U937 Cell IC50, uM or % inhib @ conc. (uM): % inhib [1, 5]: 22.0% @
